Measured values reported in US12419305B2, “Antimicrobial compositions” (Firmenich SA, priority 2018, dated 2025).

Assays:
[1] = system: E. coli ATCC 10536; experiment: BCT test (bacterial contact time), 45 s, log reduction / effect fraction; CI by Compusyn; type: cell-based, Escherichia coli; details: 45 s, in 20% EtOH
Method: (§1) E. coli, S. aureus, P. aeruginosa, and S. enterica: Separate suspensions of the E. coli ATCC 10536 strain, S. aureus ATCC 6538 strain, Pseudomonas aeruginosa ATCC 15442 strain, and the Salmonella enterica ATCC 10708 strain were prepared as follows: Stock cultures (stored at −80° C.) were thawed and sub-cultured onto Tryptic Soy Agar (TSA) agar plate media, and incubated at 37° C. for 24 h to obtain single colonies. Single colonies of the primary cultures were streaked onto TSA plates and incubated at 37° for 24 h to generate secondary cultures. Single colonies of secondary cultures picked and used to inoculate into 50 mL of TSB broth. The inoculated TSB broth was incubated at 37° C. at 180 rpm for 18 h. Aliquots (0.5 ml) of the 18 h culture were inoculated into 50 ml of fresh TSB broth, and incubated at 37° C. at 180 rpm for 2-3 hours. When the OD600 nm value of the broth reached 1-2, cells were harvested by centrifugation at 5000 rpm for 10 min, and then resuspended in fresh TSB broth at a concentration of 1-5×10^8 CFU/mL. These suspensions were used as the bacterial suspensions for the BCT test.
(§2) BCT Test: Test compositions at a range of concentrations (either combinations of more than one perfume ingredient, and comparative compositions comprising the single perfume ingredients) were prepared in ethanol. Five replicates of each test composition were added into 96-well microtiter plates (120 μl per well), with row B containing control compositions containing the ethanol solution alone. 120 μl of bacterial cell suspensions at a concentration of approximately 1×10^8 bacteria per mL (as prepared above) were added to each well of the microtiter plate. The bacterial suspensions were incubated with the test solutions for 45, 60, or 120 seconds. Following the incubation of the bacterial suspensions with the test solutions, serial dilutions of the bacterial suspensions were generated (three serial 1:10 dilutions, followed by 17 serial 1:2 dilutions), in multiwell microtiter plates.
(§3) Each plate was sealed and incubated at 37° C. under agitation (180 rpm). After incubation, the turbidity of the wells (OD600 nm) was determined using a Tecan microplate reader. Turbid wells were regarded as positive growth, due to the presence of viable cells. The total number of viable cells (log CFU) for each sample was calculated. And the log reduction for each test composition at the final concentration (dose) was calculated against the control sample of the ethanol solution.
(§4) Determination of Synergy via the Combination Index (CI): The CI was calculated using Compusyn software (ComboSyn, Inc., as created by Dr. Dorothy Chou in 2005), according to the manufacturer's instructions. The concentration of each test composition (combinations of more than one perfume ingredient, and comparative compositions comprising the single perfume ingredients used to generate the combination) and their corresponding effect fraction was entered, and the corresponding CI calculated.
(§5) When the calculated CI values were less than 0.9, the combination of perfume ingredients was regarded as having synergistic effect. When the calculated CI was between 1.0 a 0.9, the combination of perfume ingredients was regarded as having an additive effect. When the calculated CI was greater than 1.0, the combination of perfume ingredients was regarded as having an antagonistic effect.

[2] = system: S. aureus ATCC 6538; experiment: BCT test (bacterial contact time), 60 s, log reduction / effect fraction; CI by Compusyn; type: cell-based, Staphylococcus aureus; details: in 25% EtOH
Method: as §1, §2, §3, §4, §5

[3] = system: Pseudomonas aeruginosa ATCC 15442; experiment: as above; type: cell-based; details: Pseudomonas aeruginosa, ATCC15442, 1 min, BCT 60 s, in 25% EtOH
Method: as §1, §2, §3, §4, §5

[4] = system: Salmonella enterica ATCC 10708; experiment: as above; type: cell-based; details: BCT 60 s, in 25% EtOH
Method: as §1, §2, §3, §4, §5

COc1ccc(C=O)cc1 [Aldehyde Anisic, 4-methoxybenzaldehyde]
log reduction at 0.4 % strength ([1]; Escherichia coli, ATCC10536, 45 s, dose 0.400 % w/v): 0.3 | log reduction at 0.45 % strength ([1]; Escherichia coli, ATCC10536, 45 s, dose 0.450 % w/v, read-out: Log reduction): 0.6 | log reduction at 0.5 % strength ([1]; Escherichia coli, ATCC10536, 45 s, dose 0.500 % w/v): 2.7 | log reduction at 0.55 % strength ([1]; Escherichia coli, ATCC10536, 45 s, dose 0.550 % w/v, read-out: Log reduction): 6.7 | log reduction at 0.6 % strength ([1]; Escherichia coli, ATCC10536, 45 s, dose 0.600 % w/v, read-out: Log reduction): 7.3 | log reduction at 0.5 % strength ([2]; Staphylococcus aureus, ATCC6538, 1 min, dose 0.500 % w/v, 60 s, read-out: Log reduction): 0.7 | log reduction at 0.6 % strength ([2]; Staphylococcus aureus, ATCC6538, 1 min, dose 0.600 % w/v, 60 s, read-out: Log reduction): 2.3 | log reduction at 0.65 % strength ([2]; Staphylococcus aureus, ATCC6538, 1 min, dose 0.650 % w/v, 60 s): 3.5 | log reduction at 0.7 % strength ([2]; Staphylococcus aureus, ATCC6538, 1 min, dose 0.700 % w/v, 60 s, read-out: Log reduction): 5.9 | log reduction at 0.8 % strength ([2]; Staphylococcus aureus, ATCC6538, 1 min, dose 0.800 % w/v, 60 s): 6.9 | log reduction at 0.3 % strength ([3]; Dose 0.3 % w/v, read-out: Log reduction): 0.6 | log reduction at 0.35 % strength ([3]; Dose 0.35 % w/v): 1.6 | log reduction at 0.45 % strength ([3]; Dose 0.45 % w/v, read-out: Log reduction): 6.2 | log reduction at 0.475 % strength ([3]; Dose 0.475 % w/v): 5.9 | log reduction at 0.5 % strength ([3]; Dose 0.5 % w/v): 7

COc1ccc(C=O)cc1 [Aldehyde Anisique]
Effect fraction ([4]; Dose 0.4 % w/v): 0.190 | Log reduction ([4]; Dose 0.4 % w/v): 1.5 | Effect fraction ([4]; Dose 0.42 % w/v): 0.370 | Log reduction ([4]; Dose 0.42 % w/v): 2.8 | Effect fraction ([4]; Dose 0.46 % w/v): 0.670 | Log reduction ([4]; Dose 0.46 % w/v): 5.2 | Effect fraction ([4]; Dose 0.5 % w/v): 1.000 | Log reduction ([4]; Dose 0.5 % w/v): 7.7

OCc1ccccc1 [Benzyl alcohol]
log reduction at 1 % strength ([1]; Escherichia coli, ATCC10536, 45 s, dose 1.000 % w/v): 0.2 | log reduction at 1.2 % strength ([1]; Escherichia coli, ATCC10536, 45 s, dose 1.200 % w/v): 2 | log reduction at 1.3 % strength ([1]; Escherichia coli, ATCC10536, 45 s, dose 1.300 % w/v): 4.3 | log reduction at 1.4 % strength ([1]; Escherichia coli, ATCC10536, 45 s, dose 1.400 % w/v): 5.9 | log reduction at 1.6 % strength ([1]; Escherichia coli, ATCC10536, 45 s, dose 1.600 % w/v): 7.3

OC/C=C/c1ccccc1 [Cinnamic Alcohol Ord]
Effect fraction ([1]; dose 0.200 % w/v): 0.00 | Log reduction ([1]; dose 0.200 % w/v): 0 | Effect fraction ([1]; dose 0.250 % w/v): 0.02 | Log reduction ([1]; dose 0.250 % w/v): 0.2 | Effect fraction ([1]; dose 0.300 % w/v): 0.17 | Log reduction ([1]; dose 0.300 % w/v): 1.3 | Effect fraction ([1]; dose 0.350 % w/v): 0.52 | Log reduction ([1]; dose 0.350 % w/v): 4.0 | Effect fraction ([1]; dose 0.400 % w/v): 1.00 | Log reduction ([1]; dose 0.400 % w/v): 7.6

O=C/C=C/c1ccccc1 [Cinnamic aldehyde]
log reduction at 0.25 % strength ([2]; Staphylococcus aureus, ATCC6538, 1 min, Dose 0.25 % w/v, BCT 60 s): 0.3 | log reduction at 0.3 % strength ([2]; Staphylococcus aureus, ATCC6538, 1 min, Dose 0.3 % w/v, BCT 60 s): 2.9 | log reduction at 0.325 % strength ([2]; Staphylococcus aureus, ATCC6538, 1 min, Dose 0.325 % w/v, BCT 60 s): 4.2 | log reduction at 0.35 % strength ([2]; Staphylococcus aureus, ATCC6538, 1 min, Dose 0.35 % w/v, BCT 60 s): 6.5 | log reduction at 0.4 % strength ([2]; Staphylococcus aureus, ATCC6538, 1 min, Dose 0.4 % w/v, BCT 60 s): 7.1

CCOC(=O)C=Cc1ccccc1 [Ethyl Cinnamate]
log reduction at 0.03 % strength ([1]; Escherichia coli, ATCC10536, 45 s, dose 0.030 % w/v): 1 | log reduction at 0.035 % strength ([1]; Escherichia coli, ATCC10536, 45 s, dose 0.035 % w/v): 3.7 | log reduction at 0.04 % strength ([1]; Escherichia coli, ATCC10536, 45 s, dose 0.040 % w/v): 5.4 | log reduction at 0.045 % strength ([1]; Escherichia coli, ATCC10536, 45 s, dose 0.045 % w/v): 7.3

COC(C)(C)CCCC(C)C=O (stereo not drawn) [Methoxymelonal]
Effect fraction ([2]; Dose 0.600 % w/v, BCT 60 s): 0.020 | Log reduction ([2]; Dose 0.600 % w/v, BCT 60 s): 0.1 | Effect fraction ([2]; Dose 0.800 % w/v, BCT 60 s): 0.110 | Log reduction ([2]; Dose 0.800 % w/v, BCT 60 s): 0.8 | Effect fraction ([2]; Dose 0.900 % w/v, BCT 60 s): 0.360 | Log reduction ([2]; Dose 0.900 % w/v, BCT 60 s): 2.6 | Effect fraction ([2]; Dose 1.000 % w/v, BCT 60 s): 0.700 | Log reduction ([2]; Dose 1.000 % w/v, BCT 60 s): 5.1 | Effect fraction ([2]; Dose 1.200 % w/v, BCT 60 s): 0.970 | Log reduction ([2]; Dose 1.200 % w/v, BCT 60 s): 7.1

OCCc1ccccc1 [PEA]
Effect fraction ([1]; dose 0.650 % w/v): 0.00 | Log reduction ([1]; dose 0.650 % w/v): 0.0 | Effect fraction ([1]; dose 0.700 % w/v): 0.01 | Log reduction ([1]; dose 0.700 % w/v): 0.1 | Effect fraction ([1]; dose 0.750 % w/v): 0.11 | Log reduction ([1]; dose 0.750 % w/v): 0.8 | Effect fraction ([1]; dose 0.800 % w/v): 0.16 | Log reduction ([1]; dose 0.800 % w/v): 1.2 | Effect fraction ([1]; dose 0.850 % w/v): 0.60 | Log reduction ([1]; dose 0.850 % w/v): 4.3

CCC(CC(C)CC)=NO (stereo not drawn) [Stemone]
Effect fraction ([2]; Dose 0.1 % w/v, BCT 60 s): 0.050 | Log reduction ([2]; Dose 0.1 % w/v, BCT 60 s): 0.4 | Effect fraction ([2]; Dose 0.120 % w/v, BCT 60 s): 0.220 | Log reduction ([2]; Dose 0.120 % w/v, BCT 60 s): 1.6 | Effect fraction ([2]; Dose 0.140 % w/v, BCT 60 s): 0.660 | Log reduction ([2]; Dose 0.140 % w/v, BCT 60 s): 4.8 | Effect fraction ([2]; Dose 0.15 % w/v, BCT 60 s): 0.890 | Log reduction ([2]; Dose 0.15 % w/v, BCT 60 s): 6.4 | Effect fraction ([2]; Dose 0.160 % w/v, BCT 60 s): 1.000 | Log reduction ([2]; Dose 0.160 % w/v, BCT 60 s): 7.2

CC(=O)OC(C)c1ccccc1 (stereo not drawn) [Styrallyl Acetate]
Effect fraction ([1]; dose 0.120 % w/v): 0.03 | Log reduction ([1]; dose 0.120 % w/v): 0.3 | Effect fraction ([1]; dose 0.140 % w/v): 0.09 | Log reduction ([1]; dose 0.140 % w/v): 0.7 | Effect fraction ([1]; dose 0.160 % w/v): 0.37 | Log reduction ([1]; dose 0.160 % w/v): 2.7 | Effect fraction ([1]; dose 0.200 % w/v): 1.00 | Log reduction ([1]; dose 0.200 % w/v): 7.4 | Effect fraction ([1]; dose […] w/v): 0.86 | Log reduction ([1]; dose […] w/v): 6.4
